{"source": "patent US20240108623A1", "about": "“METHODS OF TREATING CANCER WITH POZIOTINIB” (BOARD OF REGENTS, THE UNIVERSITY OF TEXAS SYSTEM, priority 2021, published 2024)", "assay_in_all_cases": "Ba/F3 cell drug screening, Cell Titer Glo", "type_in_all_cases": "cell-based", "key": {"[1]": {"target": "T1, EGFR E709K (Homo sapiens, UniProt P00533, E709K)", "T1 construct": "expressed in transfected cells; host or cells: Ba/F3 (retroviral transduction, pBabe-Puro based vectors)", "conditions": "Ba/F3 cells expressing EGFR E709K; 72 hours", "in_short": "(§1)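 Ba/F3 cells stably expressing mutant EGFR (retroviral, puromycin-selected, FACS-sorted for EGFR) were kept in 1 ng/ml EGF without IL-3. Cells were exposed to seven TKI concentrations or DMSO for 72 hours, viability measured by CellTiter-Glo, normalized to DMSO, and IC50 interpolated from variable-slope fits.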"}, "[2]": {"target": "T2, EGFR Ex19del/T790M/L792H (Homo sapiens, UniProt P00533, DEL746-750/L792H/T790M)", "T2 construct": "expressed in transfected cells; host or cells: Ba/F3 (retroviral transduction, pBabe-Puro based vectors)", "conditions": "Ba/F3 cells expressing EGFR Ex19del/T790M/L792H; 72 hours", "in_short": "as §1"}, "[3]": {"target": "T3, EGFR E709K L858R (Homo sapiens, UniProt P00533, E709K/L858R)", "T3 construct": "expressed in transfected cells; host or cells: Ba/F3 (retroviral, pBabe-Puro based vector)", "conditions": "Ba/F3 cells expressing EGFR E709K L858R; 72 hours", "in_short": "as §1"}, "[4]": {"target": "T4, EGFR L858R/L792H (Homo sapiens, UniProt P00533, L792H/L858R)", "T4 construct": "expressed in transfected cells; host or cells: Ba/F3 (retroviral transduction, pBabe-Puro based vectors)", "conditions": "Ba/F3 cells expressing EGFR L858R/L792H; 72 hours", "in_short": "as §1"}, "[5]": {"target": "T5, EGFR Ex19del T790M C797S (Homo sapiens, UniProt P00533, C797S/DEL746-750/T790M)", "T5 construct": "expressed in transfected cells; host or cells: Ba/F3 (retroviral transduction, pBabe-Puro based vectors)", "conditions": "Ba/F3 cells expressing EGFR Ex19del T790M C797S; 72 hours", "in_short": "as §1"}, "[6]": {"target": "T6, EGFR L833F (Homo sapiens, UniProt P00533, L833F)", "T6 construct": "expressed in transfected cells; host or cells: Ba/F3 (retroviral, pBabe-Puro based vector)", "conditions": "Ba/F3 cells expressing EGFR L833F; 72 hours", "in_short": "as §1"}, "[7]": {"target": "T7, EGFR Ex19del/C797S (Homo sapiens, UniProt P00533, C797S/DEL746-750)", "T7 construct": "expressed in transfected cells; host or cells: Ba/F3 (murine pro-B cells), retroviral transduction with pBabe-Puro based vectors", "conditions": "Ba/F3 cells expressing EGFR Ex19del/C797S; 72 hours", "in_short": "as §1"}, "[8]": {"target": "T8, EGFR T725M (Homo sapiens, UniProt P00533, T725M)", "T8 construct": "expressed in transfected cells; host or cells: Ba/F3 (retroviral, pBabe-Puro based vector; created by GeneScript from EGFR WT)", "conditions": "Ba/F3 cells expressing EGFR T725M; 72 hours", "in_short": "as §1"}, "[9]": {"target": "T9, EGFR L747P (Homo sapiens, UniProt P00533, L747P)", "T9 construct": "expressed in transfected cells; host or cells: Ba/F3 (retroviral transduction, pBabe-Puro based vectors)", "conditions": "Ba/F3 cells expressing EGFR L747P; 72 hours", "in_short": "as §1"}, "[10]": {"target": "T10, EGFR L858R L718Q (Homo sapiens, UniProt P00533, L718Q/L858R)", "T10 construct": "host or cells: Ba/F3 (retroviral transduction, pBabe-Puro based vectors)", "conditions": "Ba/F3 cells expressing EGFR L858R L718Q; 72 hours", "in_short": "as §1"}, "[11]": {"target": "T11, EGFR L858R (Homo sapiens, UniProt P00533, L858R)", "T11 construct": "expressed in transfected cells; host or cells: Ba/F3 (retroviral, pBabe-Puro based vector)", "conditions": "Ba/F3 cells expressing EGFR L858R; 72 hours", "in_short": "as §1"}, "[12]": {"target": "T12, EGFR S720P (Homo sapiens, UniProt P00533, S720P)", "T12 construct": "expressed in transfected cells; host or cells: Ba/F3 (retroviral, pBabe-Puro based vector; created by GeneScript from EGFR WT)", "conditions": "Ba/F3 cells expressing EGFR S720P; 72 hours", "in_short": "as §1"}, "[13]": {"target": "T13, EGFR L858R T790M V843I (Homo sapiens, UniProt P00533, L858R/T790M/V843I)", "T13 construct": "expressed in transfected cells; host or cells: Ba/F3 (retroviral transduction, pBabe-Puro based vectors)", "conditions": "Ba/F3 cells expressing EGFR L858R T790M V843I; 72 hours", "in_short": "as §1"}, "[14]": {"tested_on": "EGFR I740dupIPVAK", "conditions": "Ba/F3 cells expressing EGFR I740dupIPVAK; 72 hours", "in_short": "as §1"}, "[15]": {"target": "T14, EGFR S811F (Homo sapiens, UniProt P00533, S811F)", "T14 construct": "expressed in transfected cells; host or cells: Ba/F3 (retroviral, pBabe-Puro based vector; created by GeneScript from EGFR WT)", "conditions": "Ba/F3 cells expressing EGFR S811F; 72 hours", "in_short": "as §1"}, "[16]": {"target": "T15, EGFR A767insASV (Homo sapiens, UniProt P00533, DUP767-769)", "T15 construct": "expressed in transfected cells; host or cells: Ba/F3 (retroviral, pBabe-Puro based vector)", "conditions": "Ba/F3 cells expressing EGFR A767insASV; 72 hours", "in_short": "as §1"}}, "data": [{"smiles": "C=CC(=O)N1CCC(Oc2cc3c(Nc4ccc(Cl)c(Cl)c4F)ncnc3cc2OC)CC1", "note": "[Poziotinib]", "values": [{"measurement": "Response of Cells Comprising PACC EGFR Mutations to Second-Generation TKIs", "setting": "[1]", "value": 0.0379}, {"measurement": "Response of Cells Comprising T790M-like-R EGFR Mutations to Second-Generation TKIs", "setting": "[2]", "value": 2157}, {"measurement": "Response of Cells Comprising Classical-Like EGFR Mutations to Second-Generation TKIs", "setting": "[3]", "value": 0.005342}, {"measurement": "Response of Cells Comprising PACC EGFR Mutations to Second-Generation TKIs", "setting": "[4]", "value": 0.07789}, {"measurement": "Response of Cells Comprising T790M-like-R EGFR Mutations to Second-Generation TKIs", "setting": "[5]", "value": 1862}, {"measurement": "Response of Cells Comprising Classical-Like EGFR Mutations to Second-Generation TKIs", "setting": "[6]", "value": 0.01839}, {"measurement": "Response of Cells Comprising PACC EGFR Mutations to Second-Generation TKIs", "setting": "[7]", "value": 0.458}, {"measurement": "Response of Cells Comprising Classical-Like EGFR Mutations to Second-Generation TKIs", "setting": "[8]", "value": 0.003297}, {"measurement": "Response of Cells Comprising PACC EGFR Mutations to Second-Generation TKIs", "setting": "[9]", "value": 0.1338}, {"measurement": "Response of Cells Comprising PACC EGFR Mutations to Second-Generation TKIs", "setting": "[10]", "value": 0.01623}, {"measurement": "Response of Cells Comprising Classical-Like EGFR Mutations to Second-Generation TKIs", "setting": "[11]", "value": 0.02579}, {"measurement": "Response of Cells Comprising Classical-Like EGFR Mutations to Second-Generation TKIs", "setting": "[12]", "value": 0.1814}, {"measurement": "Response of Cells Comprising T790M-like-S EGFR Mutations to Second-Generation TKIs", "setting": "[13]", "value": 5.408}, {"measurement": "Response of Cells Comprising PACC EGFR Mutations to Second-Generation TKIs", "setting": "[14]", "value": 0.02483}, {"measurement": "Response of Cells Comprising Classical-Like EGFR Mutations to Second-Generation TKIs", "setting": "[15]", "value": 0.2983}, {"measurement": "Response of Cells Comprising Ex20ins EGFR Mutations to Poziotinib", "setting": "[16]", "value": 0.3183}]}]}
